pIC50: −log10 of the molar value. Like-named read-outs stand apart in the source and are kept apart here.
Experiments:
ROCK2 = ROCK2 (Homo sapiens (Human), UniProt O75116); assay: ROCK2 assay (peptide phosphorylation, LABCHIP 3000 Reader); assay type: biochemical; settings: 5 μM ATP, 1.5 μM peptide substrate
How it was run: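 Human ROCK2 reaction in 20 mM HEPES pH 7.5, 20 mM MgCl2, 0.015% Brij-35, 4 mM DTT, with 5 μM ATP and 1.5 μM FITC-labelled peptide, DMSO <2%. Stopped with EDTA; phosphorylated and unphosphorylated peptide separated by microfluidic mobility shift. IC50 from dose-response curve fit.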

[1] = system: spontaneously hypertensive rat, renal hypertensive rat and deoxycortisone acetate salt hypertensive rat models; settings: cited from earlier work
neointimal formation = settings: rats; cited from earlier work
[2] = system: congestive heart failure in Dahl salt-sensitive rats; settings: cited from earlier work
[3] = system: IL-1 beta-induced coronary stenosis; settings: long term treatment, porcine model; cited from earlier work
rat stroke model = settings: cited from earlier work

Chain of ROCK2 (O75116 whole entry, species assumed): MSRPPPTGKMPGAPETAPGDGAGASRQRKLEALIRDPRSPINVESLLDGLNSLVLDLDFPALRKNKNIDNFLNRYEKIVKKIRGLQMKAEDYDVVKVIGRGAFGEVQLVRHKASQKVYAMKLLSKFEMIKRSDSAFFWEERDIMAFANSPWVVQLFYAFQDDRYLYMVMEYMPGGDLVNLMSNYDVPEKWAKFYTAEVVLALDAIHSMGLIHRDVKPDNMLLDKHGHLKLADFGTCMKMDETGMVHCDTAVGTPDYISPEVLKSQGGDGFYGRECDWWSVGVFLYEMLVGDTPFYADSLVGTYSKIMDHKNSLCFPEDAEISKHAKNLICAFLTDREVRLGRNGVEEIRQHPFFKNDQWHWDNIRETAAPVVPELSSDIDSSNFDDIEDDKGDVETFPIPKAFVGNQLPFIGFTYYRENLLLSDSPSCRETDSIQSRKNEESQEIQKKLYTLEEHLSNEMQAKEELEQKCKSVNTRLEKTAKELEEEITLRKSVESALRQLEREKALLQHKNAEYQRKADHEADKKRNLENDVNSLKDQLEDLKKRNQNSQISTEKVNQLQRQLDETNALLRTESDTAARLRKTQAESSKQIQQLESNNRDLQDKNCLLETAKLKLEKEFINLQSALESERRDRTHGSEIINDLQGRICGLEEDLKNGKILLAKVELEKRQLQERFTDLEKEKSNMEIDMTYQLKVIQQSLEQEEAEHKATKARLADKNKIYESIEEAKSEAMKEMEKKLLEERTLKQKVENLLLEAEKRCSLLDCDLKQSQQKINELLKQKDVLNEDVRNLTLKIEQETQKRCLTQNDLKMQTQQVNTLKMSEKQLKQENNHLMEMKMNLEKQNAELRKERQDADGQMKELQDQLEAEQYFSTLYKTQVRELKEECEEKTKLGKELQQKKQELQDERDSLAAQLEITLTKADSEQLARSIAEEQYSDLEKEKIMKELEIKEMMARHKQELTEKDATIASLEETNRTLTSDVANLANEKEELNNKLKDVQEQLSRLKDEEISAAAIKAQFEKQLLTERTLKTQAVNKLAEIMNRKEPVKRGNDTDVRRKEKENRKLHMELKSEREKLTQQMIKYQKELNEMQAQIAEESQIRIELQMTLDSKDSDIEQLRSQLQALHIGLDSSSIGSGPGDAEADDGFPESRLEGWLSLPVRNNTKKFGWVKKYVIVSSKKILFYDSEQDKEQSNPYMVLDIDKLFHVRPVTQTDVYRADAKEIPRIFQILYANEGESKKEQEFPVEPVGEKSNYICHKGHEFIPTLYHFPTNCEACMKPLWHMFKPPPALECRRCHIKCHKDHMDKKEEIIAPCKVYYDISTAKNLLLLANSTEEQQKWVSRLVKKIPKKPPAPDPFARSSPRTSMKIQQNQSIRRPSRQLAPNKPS

Structure (SMILES): O=c1n(Cc2cc(F)ccc2F)nnn1-c1ccc(-c2cn[nH]c2)cc1 [Example 174, 1-(4-(1H-pyrazol-4-yl)phenyl)-4-(2,5-difluorobenzyl)-1H-tetrazol-5(4H)-one]
- pIC50 (ROCK2): 6.60 to 7.30

Structure (SMILES): COc1cc(F)cc(Cn2nnn(-c3ccc(-c4cn[nH]c4)cc3)c2=O)c1 [Example 175, 1-(4-(1H-pyrazol-4-yl)phenyl)-4-(3-fluoro-5-methoxybenzyl)-1H-tetrazol-5(4H)-one]
- pIC50 (ROCK2): 7.30 to 8.30

Structure (SMILES): CC(c1ccccc1)n1nnn(-c2ccc(-c3cn[nH]c3)cc2)c1=O (stereo not drawn) [Example 176, 1-(4-(1H-pyrazol-4-yl)phenyl)-4-(1-phenylethyl)-1H-tetrazol-5(4H)-one]
- pIC50 (ROCK2): 7.30 to 8.30

Structure (SMILES): O=c1n(Cc2ccccc2Cl)nnn1-c1ccc(-c2cn[nH]c2)cc1 [Example 177, 1-(4-(1H-pyrazol-4-yl)phenyl)-4-(2-chlorobenzyl)-1H-tetrazol-5(4H)-one]
- pIC50 (ROCK2): 6.60 to 7.30

Structure (SMILES): O=c1n(Cc2ccccc2)nnn1-c1ccc(-c2cn[nH]c2)cc1 [Example 178, 1-(4-(1H-pyrazol-4-yl)phenyl)-4-benzyl-1H-tetrazol-5(4H)-one]
- pIC50 (ROCK2): 7.30 to 8.30

Structure (SMILES): COc1cc(-n2nnn(Cc3ccccc3)c2=O)ccc1-c1cn[nH]c1 [Example 179, 1-benzyl-4-(3-methoxy-4-(1H-pyrazol-4-yl)phenyl)-1H-tetrazol-5(4H)-one]
- pIC50 (ROCK2): 6.60 to 7.30

Structure (SMILES): COc1cc(-n2nnn(Cc3cccc(F)c3)c2=O)ccc1-c1cn[nH]c1 [Example 180, 1-(3-fluorobenzyl)-4-(3-methoxy-4-(1H-pyrazol-4-yl)phenyl)-1H-tetrazol-5(4H)-one]
- pIC50 (ROCK2): 7.30 to 8.30

Structure (SMILES): COc1cc(-n2nnn(Cc3cc(F)ccc3F)c2=O)ccc1-c1cn[nH]c1 [Example 181, 1-(2,5-difluorobenzyl)-4-(3-methoxy-4-(1H-pyrazol-4-yl)phenyl)-1H-tetrazol-5(4H)-one]
- pIC50 (ROCK2): 6.60 to 7.30

Structure (SMILES): COc1cc(F)cc(Cn2nnn(-c3ccc(-c4cn[nH]c4)c(OC)c3)c2=O)c1 [Example 182, 1-(3-fluoro-5-methoxybenzyl)-4-(3-methoxy-4-(1H-pyrazol-4-yl)phenyl)-1H-tetrazol-5(4H)-one]
- pIC50 (ROCK2): 7.30 to 8.30

Structure (SMILES): COc1cc(-n2nnn(Cc3ccccc3F)c2=O)ccc1-c1cn[nH]c1 [Example 183, 1-(2-fluorobenzyl)-4-(3-methoxy-4-(1H-pyrazol-4-yl)phenyl)-1H-tetrazol-5(4H)-one]
- pIC50 (ROCK2): 6.60 to 7.30

Structure (SMILES): COc1cc(-n2nnn(Cc3c(F)cccc3F)c2=O)ccc1-c1cn[nH]c1 [Example 184, 1-(2,6-difluorobenzyl)-4-(3-methoxy-4-(1H-pyrazol-4-yl)phenyl)-1H-tetrazol-5(4H)-one]
- pIC50 (ROCK2): 6.60 to 7.30

Structure (SMILES): COc1cc(-n2nnn(Cc3cccc(C#N)c3)c2=O)ccc1-c1cn[nH]c1 [Example 185, 3-((4-(3-methoxy-4-(1H-pyrazol-4-yl)phenyl)-5-oxo-4,5-dihydro-1H-tetrazol-1-yl)methyl)benzonitrile]
- pIC50 (ROCK2): 5.70 to 6.60

Structure (SMILES): COc1cc(-n2nnn(Cc3ccc(F)cc3)c2=O)ccc1-c1cn[nH]c1 [Example 186, 1-(4-fluorobenzyl)-4-(3-methoxy-4-(1H-pyrazol-4-yl)phenyl)-1H-tetrazol-5(4H)-one]
- pIC50 (ROCK2): 5.70 to 6.60

Structure (SMILES): COc1cccc(Cn2nnn(-c3ccc(-c4cn[nH]c4)c(OC)c3)c2=O)c1 [Example 187, 1-(3-methoxy-4-(1H-pyrazol-4-yl)phenyl)-4-(3-methoxybenzyl)-1H-tetrazol-5(4H)-one]
- pIC50 (ROCK2): 7.30 to 8.30

Structure (SMILES): C[C@@H](N)[C@H]1CC[C@H](C(=O)Nc2ccncc2)CC1 [Example Y-27632, Y-27632]
- blood pressure ([1]; control rats): only a minor effect
- blood pressure ([1]; three rat models of hypertension): significantly decrease blood pressure
- neointimal formation (neointimal formation): inhibited neointimal formation
- ventricular hypertrophy, fibrosis and function [2]: improve

Structure (SMILES): O=S(=O)(c1cccc2cnccc12)N1CCCNCC1 [fasudil]
- coronary constrictive remodeling [3]: promote a regression
- coronary stenosis [3]: progressively reduce coronary stenosis
- infarct size and neurologic deficit (rat stroke model): reduce both the infarct size and neurologic deficit
